{
  "source": "patent US9469674B2",
  "about": "(HAINAN UNIVERSITY, dated 2016)",
  "tested_on": "Chronic Constriction Injury model of ischiadic nerve (neuralgia)",
  "settings": "rat, in vivo",
  "data": [
    {"smiles": "CN1CC[C@]23c4c5ccc(O)c4O[C@H]2[C@@H](O)C=C[C@H]3[C@H]1C5", "note": "[morphine, reference compound]", "values": [
      {"measurement": "analgesic effect on neuralgia", "result": "no analgesic effect"},
      {"measurement": "mechanical threshold after withdrawal", "result": "no significant difference"}
    ]}
  ]
}
